Publication PMC10302753, “Natural-Product-Inspired Microwave-Assisted Synthesis of Novel Spirooxindoles as Antileishmanial Agents: Synthesis, Stereochemical Assignment, Bioevaluation, SAR, and Molecular Docking Studies” (Molecules, 2023)

System: not given
Assay: not given
In the case of `COc1ccc(C2C(Cc3cc4ccccc4[nH]3)NC3(C(=O)Nc4ccc(Br)cc43)C2C(=O)c2ccc(F)cc2)cc1` (stereo not shown) [25a], the melting point is reported as 154 to 156 °C. For `O=C(c1ccc(F)cc1)C1C(c2ccc(Cl)cc2)C(Cc2cc3ccccc3[nH]2)NC12C(=O)Nc1ccc(Br)cc12` (stereo not shown) [25c], the melting point was 138 to 140 °C. `COc1ccc(C2C(Cc3cc4ccccc4[nH]3)NC3(C(=O)Nc4ccc(C)cc43)C2C(=O)c2ccc(F)cc2)cc1` (stereo not shown) [25e] gave a melting point of 103 to 105 °C. `O=C(c1ccc(F)cc1)C1C(c2ccc(Cl)cc2)C(Cc2cc3ccccc3[nH]2)NC12C(=O)Nc1ccc([N+](=O)[O-])cc12` (stereo not shown) [25f] showed a melting point of 172 to 174 °C. `COc1ccc2c(c1)C1(NC(Cc3cc4ccccc4[nH]3)C(c3ccc(Cl)cc3)C1C(=O)c1ccc(F)cc1)C(=O)N2` (stereo not shown) [25g] gave a melting point of 142 to 145 °C. In the case of `CN(C)c1ccc(/C=N/N2C(=O)C(C#N)=CC23c2ccccc2NC2C=CC=CC23)cc1` (stereo not shown) [compound 18], the melting point is reported as 172 to 174 °C.

Target: Leishmania DNA topoisomerase type IB (purified recombinant LTopIB) (Leishmania donovani, UniProt A0A3Q8IHS4+Q8WQM6)
Sequence (Q8WQM6 entry or part of it): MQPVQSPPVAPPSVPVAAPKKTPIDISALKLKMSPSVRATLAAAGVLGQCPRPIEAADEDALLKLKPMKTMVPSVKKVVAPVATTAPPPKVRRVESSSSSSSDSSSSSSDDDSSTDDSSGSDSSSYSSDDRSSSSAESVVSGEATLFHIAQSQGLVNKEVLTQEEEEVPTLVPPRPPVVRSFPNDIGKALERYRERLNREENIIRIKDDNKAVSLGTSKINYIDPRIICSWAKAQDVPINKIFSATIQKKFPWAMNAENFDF
Sequence (A0A3Q8IHS4 entry or part of it): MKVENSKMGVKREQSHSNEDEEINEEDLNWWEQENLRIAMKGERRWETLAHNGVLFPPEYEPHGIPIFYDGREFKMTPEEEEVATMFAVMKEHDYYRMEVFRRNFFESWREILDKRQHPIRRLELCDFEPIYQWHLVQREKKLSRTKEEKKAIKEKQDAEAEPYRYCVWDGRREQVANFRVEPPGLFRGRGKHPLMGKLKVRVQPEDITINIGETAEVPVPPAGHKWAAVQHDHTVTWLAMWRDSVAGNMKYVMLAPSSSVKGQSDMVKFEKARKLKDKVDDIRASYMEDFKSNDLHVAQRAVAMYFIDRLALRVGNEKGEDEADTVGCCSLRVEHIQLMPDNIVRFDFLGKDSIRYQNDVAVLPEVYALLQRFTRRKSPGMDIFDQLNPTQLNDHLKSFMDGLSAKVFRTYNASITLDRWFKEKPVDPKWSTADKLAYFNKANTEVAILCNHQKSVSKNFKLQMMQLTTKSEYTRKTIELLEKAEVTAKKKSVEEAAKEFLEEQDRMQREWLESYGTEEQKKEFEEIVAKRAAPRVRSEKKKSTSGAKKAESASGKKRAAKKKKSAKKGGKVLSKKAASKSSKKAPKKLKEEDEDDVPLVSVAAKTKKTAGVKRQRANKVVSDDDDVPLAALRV
Assay: Plasmid relaxation assay (relaxation of supercoiled plasmid DNA)
Assay type: biochemical
Procedure: The relaxation of supercoiled plasmid DNA is the method used for the determination of LTopIB activity. Various doses of each compound were treated with one unit of pure LTopIB (the enzyme to relax 0.5 µg of supercoiled DNA for 30 min at 37 °C) for 20 min at 4 °C. The reaction mixture, including 0.5 μg of supercoiled pBluescript SK(−) plasmid, 10 mM Tris-HCl buffer pH 7.5, 5 mM MgCl2, 0.1 mM EDTA, 15 µg/mL of bovine serum albumin, and 150 mM KCl, was then added in a final volume of 20 μL. After 30 min at 37 °C, the reaction mixtures were stopped by adding 4 μL of loading buffer, which included 5% sarkosyl, 0.12% bromophenol blue, and 25% glycerol. By electrophoresis, the topoisomers were separated on 1% agarose gels and electrophoresed at 2 V/cm for 16 h in a 0.1 M Tris-borate-EDTA buffer (pH 8.0) after being stained with ethidium bromide (0.5 µg/mL). Plotting the percentage of supercoiled DNA versus drug concentrations allowed researchers to determine the 50% inhibition concentration (IC50) values of LTopIB inhibition as the 50% reduction of supercoiled DNA [72].
Because of the presence of spirooxindole systems in the structure of these compounds, we aimed to assess their inhibitory potential on purified recombinant LTopIB measuring the relaxation of supercoiled plasmid DNA. In this regard, all spirooxindole derivatives were assessed for LTopIB inhibition through the prevention of DNA relaxation in a circular DNA plasmid. […] After this initial test, potential inhibitor dose/response curves were performed to obtain their IC50 values. […]
The relaxation of supercoiled plasmid DNA is the method used for the determination of LTopIB activity.
Various doses of each compound were treated with one unit of pure LTopIB (the enzyme to relax 0.5 µg of supercoiled DNA for 30 min at 37 °C) for 20 min at 4 °C. The reaction mixture including 0.5 μg of supercoiled pBluescript SK(−) plasmid, 10 mM Tris-HCl buffer pH 7.5, 5 mM MgCl2, 0.1 mM EDTA, 15 µg/mL bovine serum albumin, and 150 mM KCl was then added in a final volume of 20 μL. After 30 minutes at 37 °C, the reaction mixtures were stopped by adding 4 μL of loading buffer, which included 5% sarkosyl, 0.12% bromophenol blue, and 25% glycerol. By electrophoresis, the topoisomers were separated in 1% agarose gels were electrophoresed at 2 V/cm for 16 hours in a 0.1 M Tris-borate-EDTA buffer (pH 8.0) after being stained with ethidium bromide (0.5 µg/mL). Plotting the percentage of supercoiled DNA versus drug concentrations allowed researchers to determine the 50% inhibition concentration (IC50) values of LTopIB inhibition as the 50% reduction of supercoiled DNA. […]
With `CC[C@@]1(O)C(=O)OCc2c1cc1n(c2=O)Cc2cc3ccccc3nc2-1` [Camptothecin, reference compound] the IC50 was 3 µM.
